Measurements taken from patent US20080051457A1, “Optically Active Phthalamide Derivative, Agricultural or Horticultural Insecticide, and Method of Using the Same” (priority 2004, published 2008).

test: logP (pH2.3), physical properties of Tables 1 to 3; assay type: physicochemical; settings: not given
Description: However, the present invention is not limited to these compounds. In the tables, the term “physical properties” means a melting point or logp. The symbol “Me” represents a methyl group, “Et” represents an ethyl group, “Pr” represents a propyl group, “-n” represents normal, and “-i” represents iso.

SMILES | Physical properties logP(pH2.3)
CSC[C@@H](NC(=O)c1c(Br)cccc1C(=O)Nc1ccc(C(F)(C(F)(F)F)C(F)(F)F)cc1C)C(C)C [Compound 1-351] | 4.80
CCC(C[S+](C)[O-])NC(=O)c1c(Cl)cccc1C(=O)Nc1ccc(C(F)(C(F)(F)F)C(F)(F)F)cc1C (mixture of isomers) [Compound 1-340] | 2.78
CC[C@@H](CSC)NC(=O)c1c(Cl)cccc1C(=O)Nc1ccc(C(F)(C(F)(F)F)C(F)(F)F)cc1C [Compound 1-339] | 4.47
CC[C@@H](CSC)NC(=O)c1c(I)cccc1C(=O)Nc1ccc(C(F)(C(F)(F)F)C(F)(F)F)cc1C [Compound 1-345] | 4.62
Cc1cc(C(F)(C(F)(F)F)C(F)(F)F)ccc1NC(=O)c1cccc(Br)c1C(=O)N[C@H](CS(C)(=O)=O)C(C)C [Compound 1-353] | 3.62
CC[C@@H](C[S+](C)[O-])NC(=O)c1c(I)cccc1C(=O)Nc1ccc(C(F)(C(F)(F)F)C(F)(F)F)cc1C (stereo partly drawn) [Compound 1-346] | 2.90
CC[C@@H](CS(C)(=O)=O)NC(=O)c1c(Br)cccc1C(=O)Nc1ccc(C(F)(C(F)(F)F)C(F)(F)F)cc1C [Compound 1-344] | 3.37
Cc1cc(C(F)(C(F)(F)F)C(F)(F)F)ccc1NC(=O)c1cccc(Cl)c1C(=O)N[C@@H](CC(C)C)C[S+](C)[O-] (stereo partly drawn) [Compound 1-358] | 3.27
Cc1cc(C(F)(C(F)(F)F)C(F)(F)F)ccc1NC(=O)c1cccc(I)c1C(=O)N[C@@H](CC(C)C)C[S+](C)[O-] (stereo partly drawn) [Compound 1-364] | 3.39
Cc1cc(C(F)(C(F)(F)F)C(F)(F)F)ccc1NC(=O)c1cccc(I)c1C(=O)N[C@H](C[S+](C)[O-])C(C)C (stereo partly drawn) [Compound 1-355] | 3.13
CC[C@@H](C[S+](C)[O-])NC(=O)c1c(Br)cccc1C(=O)Nc1ccc(C(F)(C(F)(F)F)C(F)(F)F)cc1C (stereo partly drawn) [Compound 1-343] | 2.83
CSC[C@@H](NC(=O)c1c(Cl)cccc1C(=O)Nc1ccc(C(F)(C(F)(F)F)C(F)(F)F)cc1C)C(C)C [Compound 1-348] | 4.77
Cc1cc(C(F)(C(F)(F)F)C(F)(F)F)ccc1NC(=O)c1cccc(Cl)c1C(=O)N[C@H](C[S+](C)[O-])C(C)C (stereo partly drawn) [Compound 1-349] | 3.03
Cc1cc(C(F)(C(F)(F)F)C(F)(F)F)ccc1NC(=O)c1cccc(I)c1C(=O)N[C@H](CS(C)(=O)=O)C(C)C [Compound 1-356] | 3.70
CC[C@@H](CS(C)(=O)=O)NC(=O)c1c(Cl)cccc1C(=O)Nc1ccc(C(F)(C(F)(F)F)C(F)(F)F)cc1C [Compound 1-341] | 3.31

same assay, conditions: Table 1

SMILES | Physical properties: logP
CC[S+]([O-])C[C@H](C)NC(=O)c1c(Br)cccc1C(=O)Nc1ccc(C(F)(C(F)(F)F)C(F)(F)F)c(F)c1C (stereo partly drawn) [Compound 1-199] | 2.90
CCS(=O)(=O)C[C@H](C)NC(=O)c1c(I)cccc1C(=O)Nc1ccc(OC(F)(F)F)c(Cl)c1Cl [Compound 1-161] | 3.18
CCSC[C@H](C)NC(=O)c1c(I)cccc1C(=O)Nc1ccc(C(F)(F)C(F)(F)F)c(F)c1C [Compound 1-108] | 4.36
CCSC[C@H](C)NC(=O)c1c(Br)cccc1C(=O)Nc1ccc(Br)c(Br)c1C [Compound 1-186] | 3.78
CCS(=O)(=O)C[C@H](C)NC(=O)c1c(Br)cccc1C(=O)Nc1ccc(Br)c(Br)c1C [Compound 1-188] | 2.59
Cc1c(NC(=O)c2cccc(Cl)c2C(=O)N[C@@H](C)C[S+](C)[O-])ccc(C(F)(C(F)(F)F)C(F)(F)F)c1F (stereo partly drawn) [Compound 1-205] | 2.69
CCSC[C@H](C)NC(=O)c1c(Cl)cccc1C(=O)Nc1ccc(C(F)(C(F)(F)F)C(F)(F)F)c(F)c1C [Compound 1-201] | 4.54
CSC[C@H](C)NC(=O)c1c(I)cccc1C(=O)Nc1ccc(C(F)(C(F)(F)F)C(F)(F)F)c(F)c1C [Compound 1-141] | 4.41
CCS(=O)(=O)C[C@H](C)NC(=O)c1c(Br)cccc1C(=O)Nc1cc(F)c(OC(F)(F)F)cc1Cl [Compound 1-194] | 2.96
CCSC[C@H](C)NC(=O)c1c(I)cccc1C(=O)Nc1ccc(C(F)(C(F)(F)F)C(F)(F)F)c(F)c1C [Compound 1-105] | 4.71
CCS(=O)(=O)C[C@H](C)NC(=O)c1c(I)cccc1C(=O)Nc1ccc(OC(F)(F)F)c(Br)c1Cl [Compound 1-164] | 3.19
Cc1c(NC(=O)c2cccc(I)c2C(=O)N[C@@H](C)CS(C)(=O)=O)ccc(Br)c1F [Compound 1-149] | 2.29
CCS(=O)(=O)C[C@H](C)NC(=O)c1c(Br)cccc1C(=O)Nc1ccc(I)c(F)c1C [Compound 1-185] | 2.51
CCSC[C@H](C)NC(=O)c1c(Br)cccc1C(=O)Nc1cc(F)c(OC(F)(F)F)cc1Cl [Compound 1-192] | 4.16
Cc1c(NC(=O)c2cccc(Cl)c2C(=O)N[C@@H](C)CS(C)(=O)=O)ccc(C(F)(F)C(F)(F)F)c1F [Compound 1-215] | 2.82
CCS(=O)(=O)C[C@H](C)NC(=O)c1c(Br)cccc1C(=O)Nc1ccc(C(F)(C(F)(F)F)C(F)(F)F)c(F)c1C [Compound 1-200] | 3.39
CCS(=O)(=O)C[C@H](C)NC(=O)c1c(Br)cccc1C(=O)Nc1ccc(OC(F)(F)F)c(F)c1C [Compound 1-191] | 2.69
CCS(=O)(=O)C[C@H](C)NC(=O)c1c(I)cccc1C(=O)Nc1ccc(C(F)(C(F)(F)F)C(F)(F)F)c(F)c1C [Compound 1-107] | 3.47
Cc1c(NC(=O)c2cccc(Br)c2C(=O)N[C@@H](C)C[S+](C)[O-])ccc(C(F)(C(F)(F)F)C(F)(F)F)c1F (stereo partly drawn) [Compound 1-169] | 2.72

Further lines, results first:

Physical properties: logP | SMILES
3.80 | CCSC[C@H](C)NC(=O)c1c(Br)cccc1C(=O)Nc1ccc(C(F)(F)F)c(F)c1C [Compound 1-180]
3.93 | CSC[C@H](C)NC(=O)c1c(Br)cccc1C(=O)Nc1ccc(C(F)(F)C(F)(F)F)c(F)c1C [Compound 1-165]
3.90 | CCSC[C@H](C)NC(=O)c1c(I)cccc1C(=O)Nc1ccc(OC(F)(F)F)c(F)c1C [Compound 1-123]
2.67 | CCS(=O)(=O)C[C@H](C)NC(=O)c1c(I)cccc1C(=O)Nc1ccc(Br)c(Br)c1C [Compound 1-131]
2.49 | CCS(=O)(=O)C[C@H](C)NC(=O)c1c(I)cccc1C(=O)Nc1ccc(Br)c(F)c1C [Compound 1-122]
3.07 | CCS(=O)(=O)C[C@H](C)NC(=O)c1c(I)cccc1C(=O)Nc1cc(F)c(OC(F)(F)F)cc1Cl [Compound 1-119]
3.27 | Cc1c(NC(=O)c2cccc(I)c2C(=O)N[C@@H](C)CS(C)(=O)=O)ccc(C(F)(C(F)(F)F)C(F)(F)F)c1F [Compound 1-143]
2.78 | Cc1c(NC(=O)c2cccc(I)c2C(=O)N[C@@H](C)C[S+](C)[O-])ccc(C(F)(C(F)(F)F)C(F)(F)F)c1F (stereo partly drawn) [Compound 1-142]
3.58 | CSC[C@H](C)NC(=O)c1c(I)cccc1C(=O)Nc1ccc(C(F)(F)F)c(F)c1C [Compound 1-156]
3.34 | CCS(=O)(=O)C[C@H](C)NC(=O)c1c(Cl)cccc1C(=O)Nc1ccc(C(F)(C(F)(F)F)C(F)(F)F)c(F)c1C [Compound 1-203]
4.26 | CCSC[C@H](C)NC(=O)c1c(Br)cccc1C(=O)Nc1ccc(C(F)(F)C(F)(F)F)c(F)c1C [Compound 1-171]
3.30 | CSC[C@H](C)NC(=O)c1c(I)cccc1C(=O)Nc1ccc(Br)c(F)c1C [Compound 1-147]
2.42 | Cc1c(NC(=O)c2cccc(Br)c2C(=O)N[C@@H](C)C[S+](C)[O-])ccc(C(F)(F)C(F)(F)F)c1F (stereo partly drawn) [Compound 1-166]
2.56 | CC[S+]([O-])C[C@H](C)NC(=O)c1c(Cl)cccc1C(=O)Nc1ccc(C(F)(F)C(F)(F)F)c(F)c1C (stereo partly drawn) [Compound 1-208]
3.59 | CSC[C@H](C)NC(=O)c1c(I)cccc1C(=O)Nc1ccc(OC(F)(F)F)c(F)c1C [Compound 1-138]
4.41 | CCSC[C@H](C)NC(=O)c1c(I)cccc1C(=O)Nc1ccc(OC(F)(F)F)c(Cl)c1Cl [Compound 1-159]
3.21 | Cc1c(NC(=O)c2cccc(Br)c2C(=O)N[C@@H](C)CS(C)(=O)=O)ccc(C(F)(C(F)(F)F)C(F)(F)F)c1F [Compound 1-170]
2.77 | CCS(=O)(=O)C[C@H](C)NC(=O)c1c(I)cccc1C(=O)Nc1ccc(OC(F)(F)F)c(F)c1C [Compound 1-125]
4.23 | CSC[C@H](C)NC(=O)c1c(Cl)cccc1C(=O)Nc1ccc(C(F)(C(F)(F)F)C(F)(F)F)c(F)c1C [Compound 1-204]
3.89 | CCSC[C@H](C)NC(=O)c1c(I)cccc1C(=O)Nc1ccc(Br)c(Br)c1C [Compound 1-129]
2.60 | Cc1c(NC(=O)c2cccc(I)c2C(=O)N[C@@H](C)CS(C)(=O)=O)ccc(OC(F)(F)F)c1F [Compound 1-140]
2.40 | Cc1c(NC(=O)c2cccc(I)c2C(=O)N[C@@H](C)CS(C)(=O)=O)ccc(I)c1F [Compound 1-152]
2.49 | Cc1c(NC(=O)c2cccc(I)c2C(=O)N[C@@H](C)CS(C)(=O)=O)ccc(Br)c1Br [Compound 1-155]
4.28 | CCSC[C@H](C)NC(=O)c1c(I)cccc1C(=O)Nc1cc(F)c(OC(F)(F)F)cc1Br [Compound 1-114]
2.97 | Cc1c(NC(=O)c2cccc(I)c2C(=O)N[C@@H](C)CS(C)(=O)=O)ccc(C(F)(F)C(F)(F)F)c1F [Compound 1-137]
3.09 | CCS(=O)(=O)C[C@H](C)NC(=O)c1c(I)cccc1C(=O)Nc1cc(F)c(OC(F)(F)F)cc1Br [Compound 1-116]
